System: apolipoprotein D
Experiment: Inhibitory effect against degradation of apolipoprotein D (human sweat concentrate treated with Brevibacterium epiderumidis cells, western blot)
Type: biochemical
Settings: human sweat concentrate as apolipoprotein-D-containing sample; Brevibacterium epiderumidis cells as protease, about 10^8 cfu/mL; 37° C. for 24 hours; antibody-staining after SDS-PAGE
Experimental: Inhibitory effects of lauric acid and oleic acid on degradation of apolipoprotein D were studied using a human sweat concentrate as an apolipoprotein-D-containing sample and Brevibacterium epiderumidis cells as a protease.
(1) Preparation of Sweat Samples
The absorbent cotton balls were squeezed, whereby a solution (57.5 mL) was collected. The collected solution was filtered through a 0.45-μm filter and then concentrated by use of a MILLIPOR Centriprep YM-10.
Distilled water was added again to the concentrate, and the resultant solution was concentrated in a similar manner by use of a Centriprep YM-10, to thereby remove substances of low molecular weight. The product was employed as a sweat concentrate.
(2) 100 mM Tris-HCl buffer (0.03 mL), distilled water (0.02 mL), and each of lauric acid (Sigma) and oleic acid (Sigma) were added to an aliquot (0.04 mL) of the sweat concentrate prepared through the above method (1). […] Briefly, the cell-treated sweat concentrate was subjected to SDS polyacrylamide electrophoresis (SDS-PAGE) by use of a Ready Gel J (15% of separation gel concentration, Bio-Rad Laboratories, Inc.), and the thus-separated proteins were electrically transcribed from the gel onto a PVDF filter (Millipore Corporation, Immobilon transfer membrane). […]

SMILES | degradation of apolipoprotein D (percent residue of apolipoprotein D)
CCCCCCCCCCCC(=O)O [lauric acid] | degradation of apolipoprotein D was suppressed
CCCCCCCC/C=C\CCCCCCCC(=O)O [oleic acid] | degradation of apolipoprotein D was suppressed

Source: US7078437B2, “Apolipoprotein D degradation inhibitor” (Kao Corporation, priority 2003, dated 2006)
